From ChEMBL document CHEMBL5634115, “Exploring novel anticancer pyrazole benzenesulfonamides featuring tail approach strategy as carbonic anhydrase inhibitors” (Eur J Med Chem, 2023)

Columns and labels:
[1] = target: Carbonic anhydrase 9 (Homo sapiens, UniProt Q16790)
Description: Binding affinity to human CA9 assessed as inhibition constant

[2] = target: T1, Carbonic anhydrase 12 (Homo sapiens, UniProt O43570)
Description: Binding affinity to human CA12 assessed as inhibition constant

[3] = target: T1, Carbonic anhydrase 12; remark: listed apart in the source
Description: Inhibition of human carbonic anhydrase 12 preincubated for 15 mins followed by substrate addition and measured after 30 mins by spectrophotometric method

T1 sequence (O43570 whole entry): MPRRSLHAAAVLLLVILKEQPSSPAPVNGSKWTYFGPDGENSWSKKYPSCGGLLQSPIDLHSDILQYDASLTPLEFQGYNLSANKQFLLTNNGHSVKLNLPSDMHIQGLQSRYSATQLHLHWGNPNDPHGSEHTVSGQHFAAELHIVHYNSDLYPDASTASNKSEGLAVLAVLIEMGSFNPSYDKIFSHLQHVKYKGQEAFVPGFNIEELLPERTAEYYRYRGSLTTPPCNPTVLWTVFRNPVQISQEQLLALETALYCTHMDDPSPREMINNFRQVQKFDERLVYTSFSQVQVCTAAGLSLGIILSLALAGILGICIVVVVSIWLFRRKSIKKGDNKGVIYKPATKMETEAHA

Compound | Ki [1] [nM] | Ki [2] [nM] | IC50 [3] [nM]
CCOC(=O)c1cc(-c2ccc(C)cc2)n(-c2ccc(S(N)(=O)=O)cc2)n1 | 176 | – | –
NS(=O)(=O)c1ccc(C(=O)N/N=C/c2ccccc2O)cc1 | 18.9 | 32.7 | –
CCn1c(-c2cc(C(=O)O)[nH]n2)cc2ccccc21 | 7.79 | 7.78 | –
CCOC(=O)c1cc(-c2ccc([N+](=O)[O-])cc2)n(-c2ccc(S(N)(=O)=O)cc2)n1 | 20.5 | – | –
Cc1ccc(-c2nn(-c3ccc(S(N)(=O)=O)cc3)cc2/C=N/Nc2ccc(S(N)(=O)=O)cc2)cc1 | – | – | 144
CCOC(=O)c1cc(-c2ccccc2)n(-c2ccc(S(N)(=O)=O)cc2)n1 | 225 | – | –
